Reference: US11000033B2, “Ketone or oxime compound, and herbicide” (NISSAN CHEMICAL CORPORATION, priority 2014, dated 2021)

How the values were obtained:
Type in all cases: in vivo
Scirpus juncoides = test: Test Example 1: herbicidal activity, application before weed generation in submerged conditions (symbol B); conditions: application herbicide amount 320 g/ha
In short: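 Greenhouse growth at 25–30 °C lasted 3 weeks after treatment, when each weed was graded 0–5 by herbicidal ratio. Treatment was a diluted emulsion applied to the water surface of 4 cm-submerged alluvial soil on the sowing day.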

Monochoria vaginalis = test: Test Example 2: herbicidal activity, application during weed generation in submerged conditions (symbol C); conditions: Table 23; application herbicide amount 320 g/ha; grade 0-5 by criteria of Test Example 1
In short: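 Alluvial soil in pots was flooded to a 4 cm water depth and sown with a mix of the three weed species, then grown in a greenhouse at 25° C. to 30° C. At the one- to two-leaf stage, an emulsifiable formulation diluted in water to a set dose was applied to the water surface. Effects were scored visually 3 weeks later.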

Setaria viridis = test: Test Example 4: herbicidal effect by soil treatment (symbol G)
In short: (§1)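 Seeds were sown in sterilized diluvial soil, covered with about 1.5 cm of soil, and the soil surface was sprayed with a water-diluted emulsion of the compound at a predetermined rate. Plants grew in a greenhouse at 25° C. to 30° C.; effects were scored visually 3 weeks after application.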

Avena fatua = test: Test Example 4: herbicidal effect by soil treatment (symbol I)
In short: as §1

Alopecurus myosuroides [1] = test: Test Example 4: herbicidal effect by soil treatment (symbol J)
In short: as §1

Abutilon theophrasti = test: Test Example 4: herbicidal effect by soil treatment (symbol M)
In short: as §1

Stellaria media = test: Test Example 4: herbicidal effect by soil treatment (symbol P)
In short: as §1

Veronica persica = test: Test Example 4: herbicidal effect by soil treatment (symbol R)
In short: as §1

soybean = test: Test Example 4: effect on crop by soil treatment (symbol d); conditions: for d: soybean, effect grade on crop: 320 g/ha; for d: soybean, effect on crop grade: application herbicide amount 320 g/ha
In short: (§2)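 Crop seed is sown in spots together with several weed species in a box of sterilized diluvial soil. It is covered by about 1.5 cm of soil and kept in a greenhouse held between 25° C. and 30° C.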

rice = test: Test Example 4: effect on crop by soil treatment (symbol b); conditions: for b: directly sowed rice plant, effect grade on crop: 320 g/ha; for b: directly sowed rice plant, effect on crop grade: application herbicide amount 320 g/ha
In short: as §2

wheat = test: Test Example 4: effect on crop by soil treatment (symbol e); conditions: for e: wheat, effect grade on crop: 320 g/ha; for e: wheat, effect on crop grade: application herbicide amount 320 g/ha
In short: as §2

Digitaria ciliaris = test: Test Example 5: herbicidal effect by foliage application, plastic box (symbol F); conditions: 320 g/ha, 3 weeks after application
In short: (§3)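 Post-emergence spray; diluvial soil (sterilized), ~1.5 cm seed cover; greenhouse 25–30° C; 14-day-old plants; water-diluted emulsion at predetermined dose; visual score at 3 wk post-treatment.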

[2] = tested on: Echinochloa crus-galli var. crus-galli; test: Test Example 5: herbicidal effect by foliage application, plastic box (symbol H); conditions: 320 g/ha, 3 weeks after application
In short: as §3

Alopecurus myosuroides [3] = test: Test Example 5: herbicidal effect by foliage application, plastic box (symbol J); conditions: 320 g/ha, 3 weeks after application
In short: as §3

Chenopodium album = test: Test Example 5: herbicidal effect by foliage application, plastic box (symbol O); conditions: 320 g/ha, 3 weeks after application
In short: as §3

rice plant = test: Test Example 5: effect on crop by foliage application, plastic box (symbol b); conditions: 320 g/ha, 3 weeks after application
In short: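 Seeds were sown in spots in sterilized diluvial soil held in a plastic box 21 cm × 13 cm × 7 cm deep, covered with about 1.5 cm of soil, and grown in a greenhouse at 25° C. to 30° C.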

[4] = application herbicide amount 320 g/ha

Row | Compound | Herbicidal effect grade, B: Scirpus juncoides (Scirpus juncoides) | Herbicidal effect grade, C: Monochoria vaginalis (Monochoria vaginalis) | G: Setaria viridis, herbicidal effect grade (Setaria viridis; 320 g/ha) | I: Avena fatua, herbicidal effect grade (Avena fatua; 320 g/ha) | J: Alopecurus myosuroides, herbicidal effect grade (Alopecurus myosuroides [1]; 320 g/ha) | M: Abutilon theophrasti, herbicidal effect grade (Abutilon theophrasti; 320 g/ha) | P: Stellaria media, herbicidal effect grade (Stellaria media; 320 g/ha) | R: Veronica persica, herbicidal effect grade (Veronica persica; 320 g/ha) | d: soybean, effect grade on crop (soybean) | b: directly sowed rice plant, effect grade on crop (rice) | e: wheat, effect grade on crop (wheat) | F: Digitaria ciliaris, herbicidal effect (criteria 0-5) (Digitaria ciliaris) | H: Echinochloa crus-galli var. crus-galli, herbicidal effect (criteria 0-5) [2] | J: Alopecurus myosuroides, herbicidal effect (criteria 0-5) (Alopecurus myosuroides [3]) | O: Chenopodium album, herbicidal effect (criteria 0-5) (Chenopodium album) | b: directly sowed rice plant, effect on crop (criteria 0-5) (rice plant) | B (Scirpus juncoides) herbicidal effect grade (Scirpus juncoides) | G: Setaria viridis, herbicidal effect grade (Setaria viridis; [4]) | I: Avena fatua, herbicidal effect grade (Avena fatua; [4]) | J: Alopecurus myosuroides, herbicidal effect grade (Alopecurus myosuroides [1]; [4]) | further results
1 | CC(CC1CC(O)=C(c2c(C)cc(C)cc2C)C1=O)=NOCC(C)Br (centres unmarked) [1-135] | 5 (Herbicidal ratio of 90% or more (almost completely withered)) | 0 (Herbicidal ratio of 5% or lower (almost no effect)) | 5 (Herbicidal ratio of 90% or more (almost completely withered)) | 3 (Herbicidal ratio of 40% or higher and lower than 70%) | 5 (Herbicidal ratio of 90% or more (almost completely withered)) | 0 (Herbicidal ratio of 5% or lower (almost no effect)) | 0 (Herbicidal ratio of 5% or lower (almost no effect)) | 2 (Herbicidal ratio of 20% or higher and lower than 40%) | 0 (Herbicidal ratio of 5% or lower (almost no effect)) | 5 (Herbicidal ratio of 90% or more (almost completely withered)) | 0 (Herbicidal ratio of 5% or lower (almost no effect)) | 5 (Herbicidal ratio of 90% or more (almost completely withered)) | 5 (Herbicidal ratio of 90% or more (almost completely withered)) | 5 (Herbicidal ratio of 90% or more (almost completely withered)) | 5 (Herbicidal ratio of 90% or more (almost completely withered)) | 5 (Herbicidal ratio of 90% or more (almost completely withered)) |  |  |  |  | 
2 | CC(CC1CC(O)=C(c2c(C)cc(C)cc2C)C1=O)=NOCc1ccc(Cl)cc1 (centres unmarked) [1-137] | 5 (Herbicidal ratio of 90% or more (almost completely withered)) | 3 (Herbicidal ratio of 40% or higher and lower than 70%) | 5 (Herbicidal ratio of 90% or more (almost completely withered)) | 2 (Herbicidal ratio of 20% or higher and lower than 40%) | 5 (Herbicidal ratio of 90% or more (almost completely withered)) | 0 (Herbicidal ratio of 5% or lower (almost no effect)) | 0 (Herbicidal ratio of 5% or lower (almost no effect)) | 0 (Herbicidal ratio of 5% or lower (almost no effect)) | 0 (Herbicidal ratio of 5% or lower (almost no effect)) | 5 (Herbicidal ratio of 90% or more (almost completely withered)) | 0 (Herbicidal ratio of 5% or lower (almost no effect)) | 5 (Herbicidal ratio of 90% or more (almost completely withered)) | 5 (Herbicidal ratio of 90% or more (almost completely withered)) | 5 (Herbicidal ratio of 90% or more (almost completely withered)) | 3 (Herbicidal ratio of 40% or higher and lower than 70%) | 5 (Herbicidal ratio of 90% or more (almost completely withered)) |  |  |  |  | 
3 | CC(CC1CC(O)=C(c2c(C)cc(C)cc2C)C1=O)=NOCc1ccc(C(F)(F)F)cc1 (centres unmarked) [1-138] | 5 (Herbicidal ratio of 90% or more (almost completely withered)) | 2 (Herbicidal ratio of 20% or higher and lower than 40%) | 4 (Herbicidal ratio of 70% or higher and lower than 90%) | 0 (Herbicidal ratio of 5% or lower (almost no effect)) | 5 (Herbicidal ratio of 90% or more (almost completely withered)) | 0 (Herbicidal ratio of 5% or lower (almost no effect)) | 0 (Herbicidal ratio of 5% or lower (almost no effect)) | 0 (Herbicidal ratio of 5% or lower (almost no effect)) | 0 (Herbicidal ratio of 5% or lower (almost no effect)) | 5 (Herbicidal ratio of 90% or more (almost completely withered)) | 0 (Herbicidal ratio of 5% or lower (almost no effect)) | 5 (Herbicidal ratio of 90% or more (almost completely withered)) | 5 (Herbicidal ratio of 90% or more (almost completely withered)) | 5 (Herbicidal ratio of 90% or more (almost completely withered)) | 0 (Herbicidal ratio of 5% or lower (almost no effect)) | 5 (Herbicidal ratio of 90% or more (almost completely withered)) |  |  |  |  | 
4 | CON=C(CC1CC(OC(=O)C(C)(C)C)=C(c2c(C)cc(C)cc2OC)C1=O)C1CC1 (mixture of isomers) [13-006] |  | 4 (Herbicidal ratio of 70% or higher and lower than 90%) |  |  |  |  |  |  |  |  |  |  |  |  |  |  | 5 (Herbicidal ratio of 90% or more (almost completely withered)) | 5 (Herbicidal ratio of 90% or more (almost completely withered)) | 0 (Herbicidal ratio of 5% or lower (almost no effect)) | 5 (Herbicidal ratio of 90% or more (almost completely withered)) | M: Abutilon theophrasti, herbicidal effect grade (Abutilon theophrasti; [4]): 5 (Herbicidal ratio of 90% or more (almost completely withered)); P: Stellaria media, herbicidal effect grade (Stellaria media; [4]): 0 (Herbicidal ratio of 5% or lower (almost no effect)); R: Veronica persica, herbicidal effect grade (Veronica persica; [4]): 0 (Herbicidal ratio of 5% or lower (almost no effect)); d: soybean, effect on crop grade (soybean): 0 (Herbicidal ratio of 5% or lower (almost no effect)); b: directly sowed rice plant, effect on crop grade (rice): 5 (Herbicidal ratio of 90% or more (almost completely withered)); e: wheat, effect on crop grade (wheat): 4 (Herbicidal ratio of 70% or higher and lower than 90%); F: Digitaria ciliaris, herbicidal effect grade (Digitaria ciliaris): 5 (Herbicidal ratio of 90% or more (almost completely withered)); H: Echinochloa crus-galli var. crus-galli, herbicidal effect grade [2]: 5 (Herbicidal ratio of 90% or more (almost completely withered)); J: Alopecurus myosuroides, herbicidal effect grade (Alopecurus myosuroides [3]): 5 (Herbicidal ratio of 90% or more (almost completely withered)); O: Chenopodium album, herbicidal effect grade (Chenopodium album): 2 (Herbicidal ratio of 20% or higher and lower than 40%); b: directly sowed rice plant, effect on crop grade (rice plant): 5 (Herbicidal ratio of 90% or more (almost completely withered))
5 | CON=C(CC1CC(O)=C(c2c(C)cc(C)cc2OC)C1=O)C1CC1 (mixture of isomers) [13-002] |  | 2 (Herbicidal ratio of 20% or higher and lower than 40%) |  |  |  |  |  |  |  |  |  |  |  |  |  |  | 4 (Herbicidal ratio of 70% or higher and lower than 90%) | 5 (Herbicidal ratio of 90% or more (almost completely withered)) | 4 (Herbicidal ratio of 70% or higher and lower than 90%) | 4 (Herbicidal ratio of 70% or higher and lower than 90%) | M: Abutilon theophrasti, herbicidal effect grade (Abutilon theophrasti; [4]): 0 (Herbicidal ratio of 5% or lower (almost no effect)); P: Stellaria media, herbicidal effect grade (Stellaria media; [4]): 0 (Herbicidal ratio of 5% or lower (almost no effect)); R: Veronica persica, herbicidal effect grade (Veronica persica; [4]): 0 (Herbicidal ratio of 5% or lower (almost no effect)); d: soybean, effect on crop grade (soybean): 1 (Herbicidal ratio of 5% or higher and lower than 20%); b: directly sowed rice plant, effect on crop grade (rice): 5 (Herbicidal ratio of 90% or more (almost completely withered)); e: wheat, effect on crop grade (wheat): 3 (Herbicidal ratio of 40% or higher and lower than 70%); F: Digitaria ciliaris, herbicidal effect grade (Digitaria ciliaris): 5 (Herbicidal ratio of 90% or more (almost completely withered)); H: Echinochloa crus-galli var. crus-galli, herbicidal effect grade [2]: 5 (Herbicidal ratio of 90% or more (almost completely withered)); J: Alopecurus myosuroides, herbicidal effect grade (Alopecurus myosuroides [3]): 5 (Herbicidal ratio of 90% or more (almost completely withered)); O: Chenopodium album, herbicidal effect grade (Chenopodium album): 5 (Herbicidal ratio of 90% or more (almost completely withered)); b: directly sowed rice plant, effect on crop grade (rice plant): 5 (Herbicidal ratio of 90% or more (almost completely withered))
